Laboratory results taken from patent US20100305053A1, “USE OF […] OF A DERIVATIVE THEREOF FOR THE PREVENTION AND/OR TREATMENT OF SLACKENED SKIN” (L'OREAL, priority 2007, published 2010).

Assays:
[1] = system: collagen IV; assay: Collagen IV immunolabeling (immunofluorescence) of skin sections after 24 weeks of dietary hesperidin; format: in vivo; details: for Number of sections (out of 12) with medium and strong labeling of the DEJ / % of sections with medium and strong labeling of the DEJ: collagen IV; for Number of sections (out of 12) with medium and strong labeling of the DEJ: control group E: 6; for % of sections with medium and strong labeling of the DEJ: control group E: 50
Method: (§1) The study was carried out on elderly, healthy individuals subjected, for 24 weeks, to a diet optionally comprising hesperidin.
(§2) The first group of individuals (group E) is a control group subjected to a standard diet free of hesperidin.
(§3) The second group of individuals (group F) is a group subjected to a diet comprising 0.1% by weight of hesperidin relative to the standard diet, which corresponds to 50 mg of hesperidin per kg of body weight of the individual and per day.
(§4) The third group of individuals (group G) is a group subjected to a standard diet comprising 0.5% by weight of hesperidin relative to the standard diet, which corresponds to 250 mg of hesperidin per kg of body weight of the individual and per day.
(§5) Skin samples were taken and analyzed in order to study, by immunofluorescence, the expression of the collagen IV and collagen VII skin markers characteristic of the dermoepidermal junction.
The immunolabeling of collagen IV is carried out by immunohistochemistry with an “anticollagen type IV polyclonal” primary antibody [Rockland (sold by Tebu-Bio), dilution 1/50] and an “anti-rabbit FITC” secondary antibody [Santa Cruz, dilution 1/100].
The labeling was carried out on frozen sections 5 μm thick derived from skin samples.
The slides were recovered in PBS for five minutes, incubated with the primary antibody for one hour at ambient temperature in the dark, rinsed in PBS twice for five minutes, then incubated with the secondary antibody for one hour at ambient temperature in the dark, and then again rinsed in PBS twice for five minutes.
The slides were then mounted with Vectashield (Vector) containing DAPI ([…]), and then covered with a coverslip.

[2] = system: collagen VII; assay: Collagen VII immunolabeling (immunofluorescence) of skin sections after 24 weeks of dietary hesperidin; format: in vivo; details: for Number of sections (out of 12) with labeling of the DEJ and labeling in the papillary dermis / % of sections with labeling of the DEJ and labeling in the papillary dermis: collagen VII; for Number of sections (out of 12) with labeling of the DEJ and labeling in the papillary dermis: control group E: 3; for % of sections with labeling of the DEJ and labeling in the papillary dermis: control group E: 25
Method: as §1, §2, §3, §4, §5
The collagen VII immunolabeling is carried out as indicated previously, but using “anticollagen type VII polyclonal” [EUROMEDEX (sold by Chemicon), dilution 1/500] as primary antibody and “anti-mouse Ig FITC” [Dake, dilution 1/100] as secondary antibody.

[3] = group F, diet with 0.1% by weight hesperidin (50 mg/kg/day), 24 weeks
[4] = group G, diet with 0.5% by weight hesperidin (250 mg/kg/day), 24 weeks

## COc1ccc([C@@H]2CC(=O)c3c(O)cc(O[C@@H]4O[C@H](CO[C@@H]5O[C@@H](C)[C@H](O)[C@@H](O)[C@H]5O)[C@@H](O)[C@H](O)[C@H]4O)cc3O2)cc1O [Hesperidin, (S)-7-[[6-O-(6-deoxy-α-L-mannopyranosyl)-β-D-glucopyranosyl]oxy]-2,3-dihydro-5-hydroxy-2-(3-hydroxy-4-methoxyphenyl)-4H-1-benzopyran-4-one]
[1]; [3]
  Number of sections (out of 12) with medium and strong labeling of the DEJ: 7
  % of sections with medium and strong labeling of the DEJ: 58%
[1]; [4]
  Number of sections (out of 12) with medium and strong labeling of the DEJ: 12
  % of sections with medium and strong labeling of the DEJ: 100%
[1]; oral, diet, 24 weeks
  Effect on collagen network in the dermal tissue and collagen IV expression (conclusion): increase in the expression of the collagen IV
[1]; the two treated groups (F and G), FIG. 1
  Expression of collagen IV in the basal lamina compared with the control: greater expression of collagen IV
[2]; [3]
  Number of sections (out of 12) with labeling of the DEJ and labeling in the papillary dermis: 6
  % of sections with labeling of the DEJ and labeling in the papillary dermis: 50%
[2]; [4]
  Number of sections (out of 12) with labeling of the DEJ and labeling in the papillary dermis: 11
  % of sections with labeling of the DEJ and labeling in the papillary dermis: 92%
[2]; more particularly group G (0.5% hesperidin diet), FIG. 2
  Collagen VII fluorescence intensity at the DEJ and in the papillary dermis: increase in fluorescence intensity
[2]; oral, diet, 24 weeks
  Effect on collagen network in the dermal tissue and collagen VII expression (conclusion): increase in the expression of collagen VII
